# Source: US6337130B1, “Acid-triggered release microcapsules” (Zeneca Limited, priority 1998, dated 2002)
# Assay: In vitro release rate evaluation: evaporative weight loss of butylate from microcapsules under vacuum (Cahn RH electrobalance)
# Type: physicochemical
# Conditions: 40° C.
# Experimental: This composition was tested in vitro for release rate in the presence of acid as follows: 5.0 grams of formulation were diluted with 25.0 grams of water. Two 1.5 gram aliquots were removed, vacuum filtered onto 0.22 μm filter paper, and placed in a jar (to reduce volatilization of butylate) until the release rate measurement was performed. The remainder of the solution was treated with a concentrated solution of p-toluenesulfonic acid to pH 2.02. The acid treated solution was rolled for 10 minutes after which several 1.5 gram aliquots of the acid treated solution were removed, vacuum filtered onto 0.22 μm filter paper, and placed in a jar (to reduce volatilization butylate) until the release rate measurement was performed.
# Release rate studies were conducted employing a Cahn RH electrobalance to monitor the rate of evaporative weight loss of butylate (a model compound with a high vapor pressure) from microcapsules under vacuum. The sample (on the filter paper) was placed on the sample pan of the electrobalance and allowed to equilibrate at 40° C. for 10-15 minutes in the sealed system prior to placing under vacuum. The weight loss, measured with the electrobalance enclosed under vacuum, was recorded on a chart recorder.
smiles,measurement,value
"CCSC(=O)N(CC(C)C)CC(C)C [butylate, S-ethyl diisobutyl thiocarbamate]",release rate of non-encapsulated butylate,The release rate of non-encapsulated butylate was determined to be about 17-19 mg/min.
